Legend:
[1] = target: T1, PSMA-expressing LS174T cells (LS174T-PSMA) (Homo sapiens, UniProt Q04609); test: Binding and internalization assay with 111In-labeled ligands; format: cell-based; settings: 2 h 37 °C
T1 construct: expressed in transfected cells; host or cells: LS174T colon carcinoma cells (human), stably transfected with pcDNA3.1-hPSMA
Method: Cell lines were purchased from the American Type Culture Collection. LS174T colon carcinoma cells were stably transfected with human PSMA using the plasmid pcDNA3.1-hPSMA and cultured in RPMI 1640 medium supplemented with 2 mM glutamine, 10% FCS, and 0.3 mg/ml G418 at 37 °C in a humidified atmosphere with 5% CO2 [5].
Binding and internalization characteristics of all ligands were compared using LS174T-PSMA and wildtype LS174T cells. Cells were cultured to confluency in 6-wells plates followed by incubation at 37 °C for 2 h in 1 ml binding buffer (RPMI/0.5% BSA) with 50,000 counts per minute (cpm) of ^111In-labeled ligand (0.1-0.25 pmol/well). Nonspecific binding was determined by coincubation with 2-(phosphonomethyl)pentane-1,5-dioic acid (2-PMPA, 21.57 µM). PSMA-specific binding was defined as nonspecific binding subtracted from total binding. To retrieve the membrane-bound fraction, cells were washed with PBS twice and incubated with acid buffer (0.1 M acetic acid, 154 mM NaCl, pH 2.6) for 10 minutes at 0 °C. After incubation, the membrane bound fraction (in acid buffer) was collected, cells were washed, lysed with 0.1 M NaOH and cell lysis (intercellular activity) was collected. Membrane-bound activity and intercellular activity fractions were measured in a gamma-counter (2480 WIZARD^2 Automatic Gamma Counter, PerkinElmer), [25]. Human serum was used to determine the in vitro serum stability of the multimodal ligands (0.8 µg/ml serum, 5 MBq/μg labeling). After incubation for 2 h at 37°C, serum proteins were precipitated by adding a 1:1 (v/v) volume of acetonitrile followed by 5 min of centrifugation at 3220×g. Stability was evaluated by RP-HPLC analysis after 2 h of incubation at 37 °C. […] Experimental details are described in the supplementary materials and methods.

[2] = Lipophilicity, PBS/n-octanol; format: physicochemical; settings: radiolabeled ligand
Method: Tubes were vortexed vigorously for 1 min and centrifuged for 5 min at 201×g for phase separation. The concentration of radioactivity in a defined volume of each layer was measured in a well-type gamma-counter.

[3] = system: LS174T-PSMA and LS174T xenografts; test: Biodistribution of 111In-labeled multimodal ligands; format: in vivo, BALB/c nude mice; settings: 0.3 nmol, 2 h p.i.
Method: Animal experiments were performed in 8-10 weeks old male BALB/c nude mice (Janvier). Animals were housed in individually ventilated cages (Blue line IVC, 4-5 mice per cage) under nonsterile standard conditions with cage enrichment present and free access to chlorophyll-free animal chow (Sniff GmbH) and water. Mice were subcutaneously inoculated with 3.0 x 10^6 LS174T-PSMA cells in the left flank and 1.5 × 10^6 LS174T cells in the right flank, diluted in 200 μL of complete RPMI 1640 medium. Eleven days after tumor cell inoculation when xenografts were approximately 0.1 cm^3, tracers were injected intravenously via the tail vein. The researchers were not blinded for the experimental groups and tumor-bearing mice were block-randomized into groups based on tumor size. All experiments were approved by the institutional Animal Welfare Committee of the Radboud university medical center and were conducted in accordance to the guidelines of the Revised Dutch Act on Animal Experimentation.
Mice were injected intravenously with 10 MBq ^111In-labeled PSMA ligands (0.3 nmol, molar activity 33.3 MBq/nmol) in PBS/0.5% BSA. Two hours post injection, mice were euthanized by CO2/O2-asphyxation and images were acquired with the IVIS fluorescence imaging system (Xenogen VivoVision IVIS Lumina II, Caliper Life Sciences), using an acquisition time of 10 s. Subsequently, µSPECT/CT images were acquired (U-SPECT II, MILabs) with a 1.0 mm diameter pinhole mouse collimator tube [26]. Mice were scanned for 30 min followed by a CT scan (spatial resolution 160 μm, 65 kV, 615 μA) for anatomical reference. µSPECT/CT scans were reconstructed with MILabs reconstruction software, using an ordered-subset expectation maximization algorithm, energy windows 154 - 188 keV and 220-270 keV, 3 iterations, 16 subsets, voxel size of 0.4 mm. SPECT/CT scans were analyzed and maximum intensity projections (MIPs) were created using the Inveon Research Workplace software version 4.1 (Siemens Preclinical Solutions). NIRF images were analyzed using Living Image software version 4.2 (Caliper Life Sciences). Tissues of interest were dissected, weighed and measured for radioactivity in a gamma-counter as described above. In the fluorescence-guided surgery feasibility study, pre-operative imaging was performed to visualize tumor tissue. After white light resection, NIRF imaging was repeated to assess if any remaining tumor was present.

T1 sequence (Q04609 whole entry): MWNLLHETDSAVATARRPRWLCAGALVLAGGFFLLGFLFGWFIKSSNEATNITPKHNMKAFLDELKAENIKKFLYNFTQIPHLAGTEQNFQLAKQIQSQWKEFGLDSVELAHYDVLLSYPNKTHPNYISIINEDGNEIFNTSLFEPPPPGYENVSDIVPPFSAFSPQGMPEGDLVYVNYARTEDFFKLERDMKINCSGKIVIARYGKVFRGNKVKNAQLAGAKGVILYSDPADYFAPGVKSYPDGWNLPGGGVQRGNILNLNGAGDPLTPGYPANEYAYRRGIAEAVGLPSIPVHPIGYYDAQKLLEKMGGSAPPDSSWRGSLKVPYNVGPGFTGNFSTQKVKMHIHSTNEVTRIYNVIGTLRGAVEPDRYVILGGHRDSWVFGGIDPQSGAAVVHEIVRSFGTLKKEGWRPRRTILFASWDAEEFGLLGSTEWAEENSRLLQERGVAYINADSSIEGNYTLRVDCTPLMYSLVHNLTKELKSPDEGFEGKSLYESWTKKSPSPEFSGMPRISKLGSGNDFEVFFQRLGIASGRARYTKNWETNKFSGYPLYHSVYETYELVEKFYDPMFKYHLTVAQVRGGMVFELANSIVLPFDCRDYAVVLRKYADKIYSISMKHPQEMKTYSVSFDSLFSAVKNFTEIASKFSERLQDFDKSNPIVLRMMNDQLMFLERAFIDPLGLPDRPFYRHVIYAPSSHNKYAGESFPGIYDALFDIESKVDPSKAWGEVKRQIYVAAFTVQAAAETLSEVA

Row | SMILES | Internalized fraction [1] | Membrane bound fraction [1] | LogD [2] | Adrenals [3] [%ID/g] | Blood [3] [%ID/g] | Bone [3] [%ID/g] | Bone marrow [3] [%ID/g] | Duodenum [3] [%ID/g] | Heart [3] [%ID/g] | Kidney [3] [%ID/g] | Liver [3] [%ID/g] | Lung [3] [%ID/g] | Muscle [3] [%ID/g] | Pancreas [3] [%ID/g] | Prostate [3] [%ID/g] | Salivary glands [3] [%ID/g] | Spleen [3] [%ID/g] | Stomach [3] [%ID/g] | Tumor+ LS174T-PSMA [3] [%ID/g] | Tumor- LS174T [3] [%ID/g] | other results
1 | C[Si](C)(CCC[N+](CCCS(=O)(=O)O)(CCCS(=O)(=O)O)CCCS(=O)(=O)O)O[Si-2]123(O[Si](C)(C)CCC[N+](CCCS(=O)(=O)O)(CCCS(=O)(=O)O)CCCS(=O)(=O)O)n4c5c6ccccc6c4N=C4c6cccc(OCCCOC(=O)NCCCCCC(=O)NCCCC[C@H](NC(=O)CCC(C(=O)O)N7CCN(CC(=O)O)CCN(CC(=O)O)CCN(CC(=O)O)CC7)C(=O)N[C@@H](CCC(=O)O)C(=O)N[C@@H](CCC(=O)O)C(=O)NCCCCCC(=O)NCCCC[C@H](NC(=O)N[C@@H](CCC(=O)O)C(=O)O)C(=O)O)c6C(=[N+]41)N=c1c4ccccc4c(n12)=NC1=[N+]3C(=N5)c2ccccc21.[Na+].[Na+].[Na+].[Na+] (stereo partly drawn) [N144] | 2.5 ± 0.05 | 0.3 ± 0.03 | -2.4 ± 0.01 | 1.3 | 0.2 | 0.5 | 0.3 | 0.3 | 0.3 | 70.3 | 0.6 | 0.4 | 0.2 | 0.2 | 0.5 | 0.4 | 1.1 | 0.3 | 11.7 | 0.5 | Tumor/Blood ratio [3]: 71.9; Tumor/Kidney ratio [3]: 0.2; Tumor/Liver ratio [3]: 21.3; Tumor/Muscle ratio [3]: 110; Tumor/Negative tumor ratio [3]: 28.8; Tumor/Prostate ratio [3]: 32; Tumor/Salivary gland ratio [3]: 30.3; Tumor/Spleen ratio [3]: 12.3
2 | C[Si](C)(CCC[N+](CCCS(=O)(=O)O)(CCCS(=O)(=O)O)CCCS(=O)(=O)O)O[Si-2]123(O[Si](C)(C)CCC[N+](CCCS(=O)(=O)O)(CCCS(=O)(=O)O)CCCS(=O)(=O)O)n4c5c6ccccc6c4N=C4c6cccc(OCCCOC(=O)NCCCCCC(=O)NCCCC[C@H](NC(=O)CCOCCOCCOCCOCCNC(=O)CCC(C(=O)O)N7CCN(CC(=O)O)CCN(CC(=O)O)CCN(CC(=O)O)CC7)C(=O)N[C@H](Cc7ccccc7)C(=O)N[C@@H](CCC(=O)O)C(=O)N[C@@H](CCC(=O)O)C(=O)NCCCCCC(=O)NCCCC[C@H](NC(=O)N[C@@H](CCC(=O)O)C(=O)O)C(=O)O)c6C(=[N+]41)N=c1c4ccccc4c(n12)=NC1=[N+]3C(=N5)c2ccccc21.[Na+].[Na+].[Na+].[Na+] (stereo partly drawn) [NJ26] | 1.8 ± 0.03 | 0.5 ± 0.05 | -2.4 ± 0.13 | 1.5 | 0.3 | 0.2 | 0.4 | 0.3 | 0.3 | 59.9 | 0.6 | 0.5 | 0.2 | 0.2 | 0.5 | 0.4 | 0.9 | 0.3 | 11.5 | 0.4 | Tumor/Blood ratio [3]: 49.1; Tumor/Kidney ratio [3]: 0.2; Tumor/Liver ratio [3]: 21.3; Tumor/Muscle ratio [3]: 116.4; Tumor/Negative tumor ratio [3]: 31.7; Tumor/Prostate ratio [3]: 29.4; Tumor/Salivary gland ratio [3]: 35; Tumor/Spleen ratio [3]: 14.2
3 | C[Si](C)(CCC[N+](CCCS(=O)(=O)O)(CCCS(=O)(=O)O)CCCS(=O)(=O)O)O[Si-2]123(O[Si](C)(C)CCC[N+](CCCS(=O)(=O)O)(CCCS(=O)(=O)O)CCCS(=O)(=O)O)n4c5c6ccccc6c4N=C4c6cccc(OCCCOC(=O)NCCCCCC(=O)NCCCC[C@H](NC(=O)CCOCCOCCOCCOCCNC(=O)CN7CCN(CC(=O)O)CCN(CC(=O)O)CCN(CC(=O)O)CC7)C(=O)N[C@H](Cc7ccccc7)C(=O)N[C@@H](CCC(=O)O)C(=O)N[C@@H](CCC(=O)O)C(=O)NCCCCCC(=O)NCCCC[C@H](NC(=O)N[C@@H](CCC(=O)O)C(=O)O)C(=O)O)c6C(=[N+]41)N=c1c4ccccc4c(n12)=NC1=[N+]3C(=N5)c2ccccc21.[Na+].[Na+].[Na+].[Na+] [NJ27] | 1.1 ± 0.05 | 0.3 ± 0.04 | -2.3 ± 0.11 | 0.7 | 0.2 | 0.2 | 0.4 | 0.2 | 0.3 | 51.4 | 0.6 | 0.3 | 0.1 | 0.2 | 0.3 | 0.3 | 0.6 | 0.2 | 9.1 ± 2 | 0.4 | Tumor/Blood ratio [3]: 62.6; Tumor/Kidney ratio [3]: 0.2; Tumor/Liver ratio [3]: 15.9; Tumor/Muscle ratio [3]: 106.4; Tumor/Negative tumor ratio [3]: 27.1; Tumor/Prostate ratio [3]: 32.7; Tumor/Salivary gland ratio [3]: 33.2; Tumor/Spleen ratio [3]: 17.3
